Patent US7880007B2, “Bicyclic substituted phenyl piperidine modulators of muscarinic receptors” (Vertex Pharmaceuticals Incorporated, priority 2004, dated 2011)

How the values were obtained:
Format in all cases: cell-based
M3 muscarinic receptor = biological target: T1, M3 muscarinic receptor (Homo sapiens, UniProt P20309); test: Functional mobilization of intracellular calcium (FLIPR), M3-CHO cells; details: for Emax: 100% efficacy = maximum response obtained with the Carbachol control; for M3 Activity: M3-CHO cells, calcium mobilization (FLIPR)
T1 construct: expressed in transfected cells; host or cells: CHO (M3-CHO)
Summary of the method: (§1)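 CHO cells expressing human M1–M4 receptors loaded with Fluo-3 AM or Calcium 3 dye (1 mM probenecid, pH 7.4); 0.5% DMSO final. Agonist mode: compound added directly; antagonist mode: 15 min pre-incubation or co-application, then carbachol at EC80. Fluorescence read 60 s on FLIPR; efficacy relative to carbachol maximum.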

M4 muscarinic receptor = biological target: T2, M4 muscarinic receptor (Homo sapiens, UniProt P08173); test: Functional mobilization of intracellular calcium (FLIPR), M4-CHO cells; details: for Emax: 100% efficacy = maximum response obtained with the Carbachol control; for M4 Activity: M4-CHO cells, calcium mobilization (FLIPR)
T2 construct: expressed in transfected cells; host or cells: CHO (M4-CHO)
T2 sequence (P08173 1-479): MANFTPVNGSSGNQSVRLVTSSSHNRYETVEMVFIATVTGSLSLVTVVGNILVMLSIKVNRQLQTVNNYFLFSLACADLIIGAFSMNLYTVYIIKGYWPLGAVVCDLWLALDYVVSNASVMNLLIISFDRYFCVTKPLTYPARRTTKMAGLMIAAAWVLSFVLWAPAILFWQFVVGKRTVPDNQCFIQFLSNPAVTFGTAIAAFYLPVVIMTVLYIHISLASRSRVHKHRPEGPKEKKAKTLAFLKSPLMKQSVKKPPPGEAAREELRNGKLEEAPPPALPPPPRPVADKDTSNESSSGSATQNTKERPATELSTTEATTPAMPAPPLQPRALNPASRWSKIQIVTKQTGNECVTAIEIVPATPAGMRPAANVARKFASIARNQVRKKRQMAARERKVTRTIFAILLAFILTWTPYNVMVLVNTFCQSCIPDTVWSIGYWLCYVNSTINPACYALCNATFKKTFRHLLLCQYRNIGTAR
Summary of the method: as §1

M1 muscarinic receptor = biological target: T3, M1 muscarinic receptor (Homo sapiens, UniProt P11229); test: Functional mobilization of intracellular calcium (FLIPR), M1-CHO cells; details: for Emax: 100% efficacy = maximum response obtained with the Carbachol control; for M1 Activity: M1-CHO cells, calcium mobilization (FLIPR)
T3 construct: expressed in transfected cells; host or cells: CHO (M1-CHO)
T3 sequence (P11229 1-460): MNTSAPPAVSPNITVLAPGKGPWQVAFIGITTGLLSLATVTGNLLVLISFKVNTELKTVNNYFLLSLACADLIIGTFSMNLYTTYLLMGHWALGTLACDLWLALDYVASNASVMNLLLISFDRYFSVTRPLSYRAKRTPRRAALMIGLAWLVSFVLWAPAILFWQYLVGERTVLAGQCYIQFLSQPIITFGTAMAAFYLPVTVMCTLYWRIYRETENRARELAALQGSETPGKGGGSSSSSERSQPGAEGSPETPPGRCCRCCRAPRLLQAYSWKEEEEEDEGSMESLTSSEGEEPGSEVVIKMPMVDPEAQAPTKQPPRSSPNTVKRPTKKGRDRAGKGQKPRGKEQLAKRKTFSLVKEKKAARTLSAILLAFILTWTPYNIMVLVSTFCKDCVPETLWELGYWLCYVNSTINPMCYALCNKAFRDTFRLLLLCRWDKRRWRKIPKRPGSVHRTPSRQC
Summary of the method: as §1

M2 muscarinic receptor = biological target: T4, M2 muscarinic receptor (Homo sapiens, UniProt P08172); test: Functional mobilization of intracellular calcium (FLIPR), M2-CHO cells; details: for Emax: 100% efficacy = maximum response obtained with the Carbachol control; for M2 Activity: M2-CHO cells, calcium mobilization (FLIPR)
T4 construct: expressed in transfected cells; host or cells: CHO (M2-CHO)
T4 sequence (P08172 1-466): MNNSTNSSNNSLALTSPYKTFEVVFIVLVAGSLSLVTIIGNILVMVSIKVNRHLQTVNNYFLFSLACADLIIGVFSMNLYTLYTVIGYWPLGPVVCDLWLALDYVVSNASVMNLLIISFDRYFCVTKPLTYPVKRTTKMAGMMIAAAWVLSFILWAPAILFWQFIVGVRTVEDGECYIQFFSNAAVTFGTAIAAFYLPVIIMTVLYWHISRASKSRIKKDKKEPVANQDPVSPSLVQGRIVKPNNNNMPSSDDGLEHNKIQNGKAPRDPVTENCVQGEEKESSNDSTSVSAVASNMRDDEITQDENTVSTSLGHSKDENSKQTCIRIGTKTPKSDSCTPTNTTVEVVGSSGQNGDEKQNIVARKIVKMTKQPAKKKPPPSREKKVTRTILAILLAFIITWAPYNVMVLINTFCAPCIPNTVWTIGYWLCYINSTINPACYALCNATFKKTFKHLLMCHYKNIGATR
Summary of the method: as §1

T1 sequence (P20309 whole entry): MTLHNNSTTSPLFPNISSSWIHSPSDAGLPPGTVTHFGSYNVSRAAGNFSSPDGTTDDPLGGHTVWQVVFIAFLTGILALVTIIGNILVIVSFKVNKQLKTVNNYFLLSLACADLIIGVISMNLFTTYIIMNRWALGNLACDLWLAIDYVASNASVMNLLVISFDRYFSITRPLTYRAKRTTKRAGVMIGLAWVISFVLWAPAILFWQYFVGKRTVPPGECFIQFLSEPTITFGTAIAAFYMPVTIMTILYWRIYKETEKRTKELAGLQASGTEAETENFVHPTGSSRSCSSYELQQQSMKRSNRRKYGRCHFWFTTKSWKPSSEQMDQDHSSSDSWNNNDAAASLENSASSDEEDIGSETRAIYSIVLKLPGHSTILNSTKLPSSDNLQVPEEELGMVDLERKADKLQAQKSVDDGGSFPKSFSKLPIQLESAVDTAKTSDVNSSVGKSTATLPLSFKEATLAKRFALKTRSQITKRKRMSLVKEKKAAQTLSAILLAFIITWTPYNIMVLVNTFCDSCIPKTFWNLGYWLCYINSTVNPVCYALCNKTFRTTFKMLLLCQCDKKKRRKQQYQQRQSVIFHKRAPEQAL

Emax (M3 muscarinic receptor) [%]	Emax (M4 muscarinic receptor) [%]	Emax (M1 muscarinic receptor) [%]	Emax (M2 muscarinic receptor) [%]	SMILES	M3 Activity (M3 muscarinic receptor)	M4 Activity (M4 muscarinic receptor)	M1 Activity (M1 muscarinic receptor)	M2 Activity (M2 muscarinic receptor)
< 25	25 to 100	25 to 100	< 25	COC(=O)CC1CCCC(N2CCC(c3ccccc3OC)CC2)C1 (centres unmarked) [Compound 238]	+ (activity was measured to be greater than 5.0 μM)	+++ (activity was measured to be less than 1.0 μM)	+ (activity was measured to be greater than 5.0 μM)	+ (activity was measured to be greater than 5.0 μM)
< 25	25 to 100	25 to 100	< 25	COc1ccc(F)cc1C1(F)CCN(CC2CCOCC2)CC1 [Compound 239]	+ (activity was measured to be greater than 5.0 μM)	++ (activity was measured to be from 1.0 μM to 5.0 μM)	+ (activity was measured to be greater than 5.0 μM)	+ (activity was measured to be greater than 5.0 μM)
< 25	25 to 100	25 to 100	< 25	COc1ccc(-c2ccccc2C2CCN([C@H]3C[C@H]4CC[C@H]3C4)CC2)cc1 [Compound 241]	+ (activity was measured to be greater than 5.0 μM)	++ (activity was measured to be from 1.0 μM to 5.0 μM)	+ (activity was measured to be greater than 5.0 μM)	+ (activity was measured to be greater than 5.0 μM)
< 25	25 to 100	25 to 100	25 to 100	COc1ccc(F)cc1C1(F)CCN(C2CCC3CCC2C3)CC1 (centres unmarked) [Compound 242]	+ (activity was measured to be greater than 5.0 μM)	+++ (activity was measured to be less than 1.0 μM)	++ (activity was measured to be from 1.0 μM to 5.0 μM)	+ (activity was measured to be greater than 5.0 μM)
< 25	25 to 100	25 to 100	< 25	CCOC(=O)N1CCC(CN2CCC(c3cc(-c4ccc(C(=O)NC)cc4)ccc3OC)CC2)CC1 [Compound 243]	+ (activity was measured to be greater than 5.0 μM)	+++ (activity was measured to be less than 1.0 μM)	+++ (activity was measured to be less than 1.0 μM)	+ (activity was measured to be greater than 5.0 μM)
< 25	25 to 100	25 to 100	25 to 100	COc1ccc(C)cc1C1CCN(C2C[C@H]3CC[C@H](C2)C3)CC1 (some centres unmarked) [Compound 246]	+ (activity was measured to be greater than 5.0 μM)	+++ (activity was measured to be less than 1.0 μM)	++ (activity was measured to be from 1.0 μM to 5.0 μM)	+ (activity was measured to be greater than 5.0 μM)
< 25	25 to 100	< 25	< 25	COc1ccc(Cl)cc1C1CCN(C2CC[S+]([O-])CC2)CC1 (centres unmarked) [Compound 248]	+ (activity was measured to be greater than 5.0 μM)	+ (activity was measured to be greater than 5.0 μM)	+ (activity was measured to be greater than 5.0 μM)	+ (activity was measured to be greater than 5.0 μM)
< 25	25 to 100	25 to 100	25 to 100	COc1ccc(Cl)cc1C1CCN(C2CCOCC2)CC1 [Compound 249]	+ (activity was measured to be greater than 5.0 μM)	+++ (activity was measured to be less than 1.0 μM)	+ (activity was measured to be greater than 5.0 μM)	+ (activity was measured to be greater than 5.0 μM)
< 25	25 to 100	25 to 100	< 25	COc1ccc(C#N)cc1C1CCN([C@H]2C[C@H]3CC[C@H]2C3)CC1 [Compound 250]	+ (activity was measured to be greater than 5.0 μM)	+++ (activity was measured to be less than 1.0 μM)	++ (activity was measured to be from 1.0 μM to 5.0 μM)	+ (activity was measured to be greater than 5.0 μM)
< 25	25 to 100	25 to 100	25 to 100	COC(=O)c1ccc(-c2ccccc2C2CCN([C@H]3C[C@H]4CC[C@H]3C4)CC2)cc1 [Compound 251]	+ (activity was measured to be greater than 5.0 μM)	+++ (activity was measured to be less than 1.0 μM)	+ (activity was measured to be greater than 5.0 μM)	+ (activity was measured to be greater than 5.0 μM)
< 25	25 to 100	25 to 100	< 25	CCOC(=O)N1CCC(CN2CCC(F)(c3cc(F)ccc3OC)CC2)CC1 [Compound 253]	+ (activity was measured to be greater than 5.0 μM)	+++ (activity was measured to be less than 1.0 μM)	+++ (activity was measured to be less than 1.0 μM)	++ (activity was measured to be from 1.0 μM to 5.0 μM)
25 to 100	25 to 100	25 to 100	< 25	COc1ccccc1C1CCN(C2CCC3CCCCC3C2)CC1 (centres unmarked) [Compound 255]	+ (activity was measured to be greater than 5.0 μM)	++ (activity was measured to be from 1.0 μM to 5.0 μM)	+ (activity was measured to be greater than 5.0 μM)	+ (activity was measured to be greater than 5.0 μM)

SMILES	Emax (M3 muscarinic receptor) [%]	Emax (M4 muscarinic receptor) [%]	Emax (M1 muscarinic receptor) [%]	Emax (M2 muscarinic receptor) [%]	M3 Activity (M3 muscarinic receptor)	M4 Activity (M4 muscarinic receptor)	M1 Activity (M1 muscarinic receptor)	M2 Activity (M2 muscarinic receptor)
COc1ccc(F)cc1C1(OC)CCN(C2CC3CCC(C3)C2)CC1 (centres unmarked) [Compound 247]	< 25	25 to 100	< 25	< 25	+ (activity was measured to be greater than 5.0 μM)	+++ (activity was measured to be less than 1.0 μM)	+ (activity was measured to be greater than 5.0 μM)	+ (activity was measured to be greater than 5.0 μM)
Cc1ccccc1C1(O)CCN(C2CC3CCC2C3)CC1 (centres unmarked) [Compound 252]	–	< 25	< 25	< 25	+ (activity was measured to be greater than 5.0 μM)	+ (activity was measured to be greater than 5.0 μM)	+ (activity was measured to be greater than 5.0 μM)	+ (activity was measured to be greater than 5.0 μM)
CCOC(=O)N1C2CCC1CC(N1CCC(c3cc(-c4ccc(CC#N)cc4)ccc3OC)CC1)C2 (centres unmarked) [Compound 254]	< 25	25 to 100	25 to 100	< 25	+ (activity was measured to be greater than 5.0 μM)	++ (activity was measured to be from 1.0 μM to 5.0 μM)	+ (activity was measured to be greater than 5.0 μM)	+ (activity was measured to be greater than 5.0 μM)
